In patent publication US8236792B2, “Substituted pyrrolidine amides as modulators of the histamine H3 receptor” (Janssen Pharmaceutica NV, priority 2008, dated 2012):

Molecular target: T1, cloned human H3 receptors (Homo sapiens, UniProt Q9Y5N1)
T1 construct: expressed in transfected cells
Test: H3 Receptor Binding (Human) Method 1
Details: receptor stably expressed in SK-N-MC cells, free base forms, average of results

T1 sequence (Q9Y5N1 whole entry): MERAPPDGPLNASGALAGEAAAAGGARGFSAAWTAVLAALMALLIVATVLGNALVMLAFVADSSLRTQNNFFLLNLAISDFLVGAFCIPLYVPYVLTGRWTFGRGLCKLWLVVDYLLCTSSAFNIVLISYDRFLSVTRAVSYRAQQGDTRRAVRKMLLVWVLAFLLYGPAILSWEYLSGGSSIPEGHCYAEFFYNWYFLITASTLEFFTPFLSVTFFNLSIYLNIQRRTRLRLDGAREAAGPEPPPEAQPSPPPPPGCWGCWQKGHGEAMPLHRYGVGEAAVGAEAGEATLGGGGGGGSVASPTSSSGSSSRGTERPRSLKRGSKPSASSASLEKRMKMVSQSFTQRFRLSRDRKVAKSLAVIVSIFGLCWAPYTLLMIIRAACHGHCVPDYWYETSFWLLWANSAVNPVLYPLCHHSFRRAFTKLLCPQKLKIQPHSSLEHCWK

SMILES	Ki [nM]
CC(C)(C)OC(=O)N1CC(Oc2cccc(F)c2)C[C@H]1C(=O)N1CCCN(C2CCC2)CC1 (mixture of isomers) [Example 41, (2S)-2-(4-Cyclobutyl-[1,4]diazepane-1-carbonyl)-4-(3-fluoro-phenoxy)-pyrrolidine-1-carboxylic acid tert-butyl ester]	18
CC(C)(C)OC(=O)N1C[C@H](O)C[C@H]1C(=O)N1CCCN(C2CCC2)CC1 [Example 1, (2S,4R)-2-(4-Cyclobutyl-[1,4]diazepane-1-carbonyl)-4-hydroxy-pyrrolidine-1-carboxylic acid tert-butyl Ester]	70
CC(C)(C)OC(=O)N1C[C@H](O)C[C@H]1C(=O)N1CCN(C2CCC2)CC1 [Example 2, (2S,4R)-2-(4-Cyclobutyl-piperazine-1-carbonyl)-4-hydroxy-pyrrolidine-1-carboxylic acid tert-butyl Ester]	> 10000
CC(C)(C)OC(=O)N1C[C@@H](Oc2ccc(F)cc2)C[C@H]1C(=O)N1CCCN(C2CCC2)CC1 [Example 11, (2S,4S)-2-(4-Cyclobutyl-[1,4]diazepane-1-carbonyl)-4-(4-fluoro-phenoxy)-pyrrolidine-1-carboxylic acid tert-butyl ester]	37
CC(C)(C)OC(=O)N1C[C@@H](Oc2ccc(F)cc2)C[C@H]1C(=O)N1CCN(C2CCC2)CC1 [Example 12, (2S,4S)-2-(4-Cyclobutyl-piperazine-1-carbonyl)-4-(4-fluoro-phenoxy)-pyrrolidine-1-carboxylic acid tert-butyl ester]	> 1500
CC(C)(C)OC(=O)N1C[C@H](Oc2ccc(F)cc2)C[C@H]1C(=O)N1CCCN(C2CCC2)CC1 [Example 15, (2S,4R)-2-(4-Cyclobutyl-[1,4]diazepane-1-carbonyl)-4-(4-fluoro-phenoxy)-pyrrolidine-1-carboxylic acid tert-butyl ester]	25
CC(C)(C)OC(=O)N1C[C@@H](Oc2ccc(F)cc2)C[C@@H]1C(=O)N1CCCN(C2CCC2)CC1 [Example 18, (2R,4S)-2-(4-Cyclobutyl-[1,4]diazepane-1-carbonyl)-4-(4-fluoro-phenoxy)-pyrrolidine-1-carboxylic acid tert-butyl ester]	5

Molecular target: human H3 receptor (Homo sapiens, UniProt Q9Y5N1)
Test: H3 Receptor Binding (Human) Method 2, [125I]-iodoproxyfan competitive radioligand binding
Design: expressed in transfected cells
Details: Method 2; SK-N-MC cell membranes; [125I]-iodoproxyfan 1 nM; apparent Ki; free base or hydrochloride salt; average of results; read-out: Human H3 Ki

Sequence of human H3 receptor (Q9Y5N1 whole entry): as above

SMILES	Ki [nM]
O=C(N1CCCN(C2CCC2)CC1)[C@@]1(Cc2ccc(C(F)(F)F)cc2)CCCN1 [Example 170, (2S)-(4-Cyclobutyl-[1,4]diazepan-1-yl)-[2-(4-trifluoromethyl-benzyl)-pyrrolidin-2-yl]-methanone]	201
O=C(N1CCCN(C2CCC2)CC1)[C@@]1(Cc2ccccc2)CCCN1 [Example 171, (2S)-(2-Benzyl-pyrrolidin-2-yl)-(4-cyclobutyl-[1,4]diazepan-1-yl)-methanone]	11

Next, values leading:

Ki [nM]	SMILES
13	O=C([C@H]1C[C@H](Oc2ccc(F)cc2)CN1C1CC1)N1CCCN(C2CCC2)CC1 [Example 142, (2R,4S)-1-Cyclopropyl-2-(4-cyclobutyl-[1,4]diazepane-1-carbonyl)-4-(4-fluoro-phenoxy)-pyrrolidine]
44	O=C(N1CCCN(C2CCC2)CC1)[C@@]1(Cc2cccc(F)c2)CCCN1 [Example 168, (2S)-2-(4-Cyclobutyl-[1,4]diazepane-1-carbonyl)-2-(3-fluoro-benzyl)-pyrrolidine]

Same assay, conditions: read-out: Human H3 Ki

SMILES	Ki [nM]
CC(C)(C)OC(=O)N1CC[C@@H](Oc2cccc(F)c2)[C@H]1C(=O)N1CCCN(C2CCC2)CC1 [Example 143, (2S,3R)-2-(4-Cyclobutyl-[1,4]diazepane-1-carbonyl)-3-(3-fluoro-phenoxy)-pyrrolidine-1-carboxylic acid tert-butyl ester]	845
CC(C)(C)OC(=O)N1CC[C@@H](Oc2ccc(F)cc2)[C@H]1C(=O)N1CCCN(C2CCC2)CC1 [Example 144, (2S,3R)-2-(4-Cyclobutyl-[1,4]diazepane-1-carbonyl)-3-(4-fluoro-phenoxy)-pyrrolidine-1-carboxylic acid tert-butyl ester]	957
CC(C)(C)OC(=O)N1CC[C@@H](Oc2ccc(C#N)cc2)[C@H]1C(=O)N1CCCN(C2CCC2)CC1 [Example 145, (2S,3R)-3-(4-Cyano-phenoxy)-2-(4-cyclobutyl-[1,4]diazepane-1-carbonyl)-pyrrolidine-1-carboxylic acid tert-butyl ester]	1100
CSc1ccc(O[C@@H]2CCN(C(=O)OC(C)(C)C)[C@@H]2C(=O)N2CCCN(C3CCC3)CC2)cc1 [Example 146, (2S,3R)-2-(4-Cyclobutyl-[1,4]diazepane-1-carbonyl)-3-(4-methylsulfanyl-phenoxy)-pyrrolidine-1-carboxylic acid tert-butyl ester]	1470
CC(C)(C)OC(=O)N1C[C@@H](OCc2ccc(F)cc2)C[C@@H]1C(=O)N1CCCN(C2CCC2)CC1 [Example 148, (2R,4S)-2-(4-Cyclobutyl-[1,4]diazepane-1-carbonyl)-4-(4-fluoro-benzyloxy)-pyrrolidine-1-carboxylic acid tert-butyl ester]	6
CC(C)(C)OC(=O)N1C[C@@H](OCc2ccc(C#N)cc2)C[C@@H]1C(=O)N1CCCN(C2CCC2)CC1 [Example 149, (2R,4S)-4-(4-Cyano-benzyloxy)-2-(4-cyclobutyl-[1,4]diazepane-1-carbonyl)-pyrrolidine-1-carboxylic acid tert-butyl ester]	13
CC(=O)N1C[C@@H](Oc2cccc(F)c2)C[C@@H]1C(=O)N1CCCNCC1 [Example 156, (2R,4S)-4-[1-Acetyl-4-(3-fluoro-Phenoxy)-pyrrolidine-2-carbonyl]-[1,4]diazepane]	1160
CC(C)(C)OC(=O)N1CCC[C@]1(Cc1cccc(F)c1)C(=O)N1CCCN(C2CCC2)CC1 [Example 164, (2S)-2-(4-Cyclobutyl-[1,4]diazepane-1-carbonyl)-2-(3-fluoro-benzyl)-pyrrolidine-1-carboxylic acid tert-butyl ester]	53
CC(C)(C)OC(=O)N1CCC[C@]1(Cc1ccc(F)cc1)C(=O)N1CCCN(C2CCC2)CC1 [Example 165, (2S)-2-(4-Cyclobutyl-[1,4]diazepane-1-carbonyl)-2-(4-fluoro-benzyl)-pyrrolidine-1-carboxylic acid tert-butyl ester]	257
CC(C)(C)OC(=O)N1CCC[C@]1(Cc1ccc(C(F)(F)F)cc1)C(=O)N1CCCN(C2CCC2)CC1 [Example 166, (2S)-2-(4-Cyclobutyl-[1,4]diazepane-1-carbonyl)-2-(4-trifluoromethyl-benzyl)-pyrrolidine-1-carboxylic acid tert-butyl ester]	60
CC(C)(C)OC(=O)N1CCC[C@]1(Cc1ccccc1)C(=O)N1CCCN(C2CCC2)CC1 [Example 167, (2S)-2-Benzyl-2-(4-cyclobutyl-[1,4]diazepane-1-carbonyl)-pyrrolidine-1-carboxylic acid tert-butyl ester]	51
O=C(N1CCCN(C2CCC2)CC1)[C@@]1(Cc2ccc(F)cc2)CCCN1 [Example 169, (2S)-(4-Cyclobutyl-[1,4]diazepan-1-yl)-[2-(4-fluoro-benzyl)-pyrrolidin-2-yl]-methanone]	27
CC(C)(C)OC(=O)N1C[C@H](Cc2ccccc2)C[C@H]1C(=O)N1CCCN(C2CCC2)CC1 [Example 173, (2S,4R)-4-Benzyl-2-(4-cyclobutyl-[1,4]diazepane-1-carbonyl)-pyrrolidine-1-carboxylic acid tert-butyl ester]	39
CC(C)(C)OC(=O)N1C[C@H](Cc2ccsc2)C[C@H]1C(=O)N1CCCN(C2CCC2)CC1 [Example 176, (2S,4R)-2-(4-Cyclobutyl-[1,4]diazepane-1-carbonyl)-4-thiophen-3-ylmethyl-pyrrolidine-1-carboxylic acid tert-butyl ester]	20

The remaining lines, values ahead:

Ki [nM]	SMILES
8	CC(C)(C)OC(=O)N1C[C@@H](OCc2cccc(F)c2)C[C@@H]1C(=O)N1CCCN(C2CCC2)CC1 [Example 147, (2R,4S)-2-(4-Cyclobutyl-[1,4]diazepane-1-carbonyl)-4-(3-fluoro-benzyloxy)-pyrrolidine-1-carboxylic acid tert-butyl ester]
53	CC(C)(C)OC(=O)N1C[C@H](Cc2ccc(F)cc2)C[C@H]1C(=O)N1CCCN(C2CCC2)CC1 [Example 174, (2S,4R)-2-(4-Cyclobutyl-[1,4]diazepane-1-carbonyl)-4-(4-fluoro-benzyl)pyrrolidine-1-carboxylic acid tert-butyl ester]
72	CC(C)(C)OC(=O)N1C[C@H](Cc2cccc(F)c2)C[C@H]1C(=O)N1CCCN(C2CCC2)CC1 [Example 175, (2S,4R)-2-(4-Cyclobutyl-[1,4]diazepane-1-carbonyl)-4-(3-fluoro-benzyl)-pyrrolidine-1-carboxylic acid tert-butyl ester]
263	O=C([C@@H]1C[C@@H](Cc2ccccc2)CN1)N1CCCN(C2CCC2)CC1 [Example 177, (2S,4R)-(4-Benzyl-pyrrolidin-2-yl)-(4-cyclobutyl-[1,4]diazepan-1-yl)-methanone]
299	O=C([C@@H]1C[C@@H](Cc2ccc(F)cc2)CN1)N1CCCN(C2CCC2)CC1 [Example 178, (2S,4R)-(4-Cyclobutyl-[1,4]diazepan-1-yl)-[4-(4-fluoro-benzyl)-pyrrolidin-2-yl]-methanone]
348	O=C([C@@H]1C[C@@H](Cc2cccc(F)c2)CN1)N1CCCN(C2CCC2)CC1 [Example 179, (2S,4R)-(4-Cyclobutyl-[1,4]diazepan-1-yl)-[4-(3-fluoro-benzyl)-pyrrolidin-2-yl]-methanone]
50	O=C([C@@H]1C[C@@H](Cc2ccsc2)CN1)N1CCCN(C2CCC2)CC1 [Example 180, (2S,4R)-(4-Cyclobutyl-[1,4]diazepan-1-yl)-(4-thiophen-3-ylmethyl-pyrrolidin-2-yl)-methanone]
2110	CC(=O)N1C[C@H](Cc2ccc(F)cc2)C[C@H]1C(=O)N1CCCN(C2CCC2)CC1 [Example 181]
1160	CC(=O)N1C[C@H](Cc2cccc(F)c2)C[C@H]1C(=O)N1CCCN(C2CCC2)CC1 [Example 182]
203	CC(=O)N1C[C@H](Cc2ccsc2)C[C@H]1C(=O)N1CCCN(C2CCC2)CC1 [Example 183]
